Values joined by “and” are separate entries in the source; they are usually repeats but may differ in a detail not shown here. Equal entries are not always repeated.
What was measured:
MRGPRX4 + RAMP3 [1] = target: T1, MRGPRX4 + RAMP3 (Homo sapiens, UniProt Q96LA9); assay: IP1 accumulation, MRGPRX4 coexpressed with RAMP3; format: cell-based; design: key to IP1 Basal / response to agonist, X4:ramp3.I:0.25 / response to agonist, X4:ramp3.I:0.5 / response to agonist, X4:ramp3.I:1: % IP1; unstimulated mock = 0%, fully stimulated MRGPRX4 = 100%; conditions: Figure 4c-f, agonist 100µM, MRGPRX4 = 100
T1 construct: expressed in transfected cells; host or cells: HEK293T
Method: (§1) HEK293T cells were transfected with 1 pg/cell of MRGPRX4 DNA, and the amount of DNA was kept constant at 2 pg/cell with pcDNA3.1(+) empty vector, unless otherwise specified. Twenty four hours after transfection, IP1 assay was performed as previously described ([51]). When applicable, cells were treated with 1 μM YM254890 (YM) or different concentrations of U73122 for 1 h prior to addition of agonist or buffer. After incubation for 2 h, HTRF reagents and IP1 calibration standards were added and incubated for 2 h in the dark at room temperature. Time-resolved fluorescence signals were read on the BioTek Synergy NEO-TRF Hybrid multi-mode reader (BioTek Instruments). All data were carried out in three independent experiments with three technical replicate each.
(§2) For RAMP DNA titration assay, HEK293T cells were cotransfected with a constant amount of 1 pg/cell of FLAG-MRGPRX4-GFP10-1D4 to which a serial dilution of 1, 0.75, 0.5, 0.25, or 0 pg/cell of each HA-RAMP-OLLAS was added. For a homogenous transfection of MRGPRX4, a master mix of MRGPRX4 DNA was made prior to addition of the RAMP DNA. […]
(§3) Data reduction, standard calibration, and transformation of HTRF data were performed as previously described ([51]). Normalized IP1 values were calculated relative to the unstimulated mock-transfected cells (set to 0%) and fully stimulated MRGPRX4 (alone if applicable) (set to 100%).

MRGPRX4 + RAMP3 [2] = target: T1, MRGPRX4 + RAMP3; assay: IP1 accumulation, MRGPRX4 coexpressed with RAMP3; format: cell-based; design: key: % IP1; unstimulated mock = 0%, fully stimulated MRGPRX4 = 100%; conditions: Figure 4c-f; agonist 100µM; X4:ramp3 1:2; MRGPRX4 = 100
MRGPRX4 = target: T2, MRGPRX4 (Homo sapiens, UniProt Q96LA9); assay: IP1 accumulation HTRF assay, MRGPRX4; format: cell-based; design: key to IP1 Basal / IP1 accumulation with YM (Figure 1c) / response to agonist, MRGPRX4 / IP1 accumulation: % IP1: unstimulated mock-transfected = 0%, fully stimulated MRGPRX4 = 100%
T2 construct: expressed in transfected cells; host or cells: HEK293T
Method: as §1
For characterization of the Tet-On Nluc-HT7-MRGPRX4-GFP10-1D4 construct, HEK293T cells were transfected as previously described with some modifications. Dox dose-response of NLuc-HT7-MRGPRX4-GFP10-1D4 DNA titration was assayed by transfecting HEK293T cells with either 1 or 2 pg/cell of NLuc-HT7-MRGPRX4-GFP10-1D4 construct. Receptor expression was induced 4 h after transfection with addition of different concentrations of dox for 20 h. For the RAMP DNA titration assay, cells were cotransfected with a constant amount of 1 pg/cell of NLuc-HT7-MRGPRX4-GFP10-1D4 DNA and 1, 0.75, 0.5, or 0 pg/cell of each HA-RAMP-OLLAS with the homogenous transfection method. Four hours after transfection, receptor expression was induced with addition of 1000 ng/ml dox. Twenty hours after induction, IP1 assay was performed.
as §3

[3] = system: mock-transfected HEK293T cells; assay: IP1 accumulation, mock-transfected cells; format: cell-based, human; design: IP1 Basal / IP1 span / IP1 Emax / IP1 accumulation, dose-response (Figure 1a) / IP1 accumulation with YM (Figure 1c) / IP1 accumulation: unit not given here; conditions: pcDNA (mock), individual replicates
Method: as §1
Validation of CALCRL constructs was assayed by cotransfecting HEK293T cells with different tagged versions of CALCRL alone or with each RAMP and with the promiscuous Gqs5 Gq chimera protein, at a respective DNA ratio of 1:1:0.5. Gqs5 is an engineered Gq protein containing the last five amino acid residues of Gs, which allows Gs-coupled GPCRs to signal through Gq downstream signaling pathways ([55]). The homogenous transfection method described above was used for all DNA mixes. CALCRL:RAMP2:Gqs5-transfected cells served as positive control for RAMP functionality.
as §3

MRGPRX4 + RAMP2 = target: T3, MRGPRX4 + RAMP2 (Homo sapiens, UniProt Q96LA9); assay: IP1 accumulation, MRGPRX4 coexpressed with RAMP2; format: cell-based; design: key to response to agonist, X4:ramp2.I:2: % IP1: mock-transfected unstimulated = 0%, fully stimulated MRGPRX4 = 100%; key to IP1 Basal / response to agonist, X4:ramp2.I:0.25 / response to agonist, X4:ramp2.I:0.5 / response to agonist, X4:ramp2.I:1: % IP1; unstimulated mock = 0%, fully stimulated MRGPRX4 = 100%; conditions: Figure 4c-f, agonist 100µM, MRGPRX4 = 100
T3 construct: expressed in transfected cells; host or cells: HEK293T
Method: as §1, §2, §3

MRGPRX4 + RAMP1 = target: T4, MRGPRX4 + RAMP1 (Homo sapiens, UniProt Q96LA9); assay: IP1 accumulation, MRGPRX4 coexpressed with RAMP1; format: cell-based; design: key to IP1 Basal / response to agonist, X4:ramp1.I:1 / response to agonist, X4:ramp1.I:2 / response to agonist, X4:ramp1.I:0.25 / response to agonist, X4:ramp1.I:0.5: % IP1; unstimulated mock = 0%, fully stimulated MRGPRX4 = 100%; conditions: Figure 4c-f, agonist 100µM, MRGPRX4 = 100
T4 construct: expressed in transfected cells; host or cells: HEK293T
Method: as §1
For a homogenous transfection of MRGPRX4, a master mix of MRGPRX4 DNA was made prior to addition of the RAMP DNA. […]
as §3

T3 sequence (Q96LA9 whole entry): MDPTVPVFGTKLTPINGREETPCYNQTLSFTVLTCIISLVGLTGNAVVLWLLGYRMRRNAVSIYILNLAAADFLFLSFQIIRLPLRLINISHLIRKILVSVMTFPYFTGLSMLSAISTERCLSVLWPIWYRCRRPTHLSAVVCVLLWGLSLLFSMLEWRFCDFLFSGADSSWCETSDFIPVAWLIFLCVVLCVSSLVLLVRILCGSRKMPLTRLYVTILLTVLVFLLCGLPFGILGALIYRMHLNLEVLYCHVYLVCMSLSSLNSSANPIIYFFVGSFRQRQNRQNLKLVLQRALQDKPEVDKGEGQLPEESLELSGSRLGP
T2 sequence (Q96LA9 whole entry): as above
T4 sequence (Q96LA9 whole entry): as above
T1 sequence (Q96LA9 whole entry): as above

In the case of `C[C@H](CCC(=O)O)[C@H]1CC[C@H]2[C@@H]3[C@@H](O)C[C@@H]4C[C@H](O)CC[C@]4(C)[C@H]3CC[C@]12C` [UDCA, ursodeoxycholic acid], the “response to agonist, X4:ramp3.I:0.25” value (MRGPRX4 + RAMP3 [1]; X4:ramp3 1:0.25) is reported as 86.9905 and 87.7685, the “response to agonist, X4:ramp3.I:0.5” value (MRGPRX4 + RAMP3 [1]; X4:ramp3 1:0.5) is reported as 74.5043 and 88.6761 and the “response to agonist, X4:ramp3.I:1” value (MRGPRX4 + RAMP3 [1]; X4:ramp3 1:1) is reported as 78.3418 and 68.7873. The “response to agonist, X4:ramp3.I:2” value (MRGPRX4 + RAMP3 [2]) was 54.7688 and 68.6572, the activation at 33.333 µM (MRGPRX4; 2 h, log [agonist] (M) -4.47712, MRGX4-transfected, individual replicates, read-out: IP1 accumulation, dose-response (Figure 1a)) was 16.7% and the activation at 11.111 µM (MRGPRX4; 2 h, log [agonist] (M) -4.95424, MRGX4-transfected, individual replicates, read-out: IP1 accumulation, dose-response (Figure 1a)) was 14.8%. It also gave an activation at 1.2346 µM (MRGPRX4; 2 h, log [agonist] (M) -5.90849, MRGX4-transfected, individual replicates, read-out: IP1 accumulation, dose-response (Figure 1a)) of 12.9%, an activation at 0.4115 µM (MRGPRX4; 2 h, log [agonist] (M) -6.38561, MRGX4-transfected, individual replicates, read-out: IP1 accumulation, dose-response (Figure 1a)) of 12.7% and an activation at 0.13717 µM (MRGPRX4; 2 h, log [agonist] (M) -6.86273, MRGX4-transfected, individual replicates, read-out: IP1 accumulation, dose-response (Figure 1a)) of 12.1%. For the same compound, the “response to agonist, MRGPRX4” value (MRGPRX4; Figure 4c-f, agonist 100µM, MRGPRX4 alone (reference = 100)) was 100, the “IP1 Basal” value (MRGPRX4; MRGPRX4 (Fig. 1A), HEK293T, normalized to 100 μM nateglinide) was 13.66 and the “IP1 accumulation, dose-response (Figure 1a)” value (“IP1 accumulation” for short) ([3]; log [agonist] (M) -4) was 0.4812 and 0.4346 and 0.8349 and -0.1011 and 0.2178 and -0.3214 and 0.5013 and -0.2736 and -1.513 and -0.6571 and 0.03201 and -0.9921. For the same compound, the “IP1 accumulation” value ([3]; log [agonist] (M) -4.95424) was 0.8578 and 0.7057 and 0.8792 and 0.1679 and 0.2632 and -0.1306 and 0.2729 and -0.3135 and 0.01077 and -0.3984 and 1.094 and -0.3997, the “IP1 accumulation” value ([3]; log [agonist] (M) -5.90849) was 0.6444 and 0.5533 and 0.8424 and 0.3166 and 0.4567 and -0.2351 and 0.4796 and -0.05346 and 0.7094 and 0.5317 and 1.212 and 0.8514 and the “IP1 accumulation” value ([3]; log [agonist] (M) -6.86273) was 1.003 and 1.057 and 1.14 and 0.6057 and 0.714 and 0.2582 and 0.7883 and 0.3494. For the same compound, the “response to agonist, X4:ramp2.I:0.25” value (MRGPRX4 + RAMP2; X4:ramp2 1:0.25) was 79.4398 and 88.1338, the “response to agonist, X4:ramp2.I:0.5” value (MRGPRX4 + RAMP2; X4:ramp2 1:0.5) was 67.697 and 77.1393 and the “response to agonist, X4:ramp2.I:1” value (MRGPRX4 + RAMP2; X4:ramp2 1:1) was 40.116 and 40.4903. The “response to agonist, X4:ramp2.I:2” value (MRGPRX4 + RAMP2; X4:ramp2 1:2) was 13.5988 and 14.044, the “response to agonist, X4:ramp1.I:0.25” value (MRGPRX4 + RAMP1; X4:ramp1 1:0.25) was 100.75 and 106.142 and the “response to agonist, X4:ramp1.I:0.5” value (MRGPRX4 + RAMP1; X4:ramp1 1:0.5) was 100.618 and 106.983. The “response to agonist, X4:ramp1.I:1” value (MRGPRX4 + RAMP1; X4:ramp1 1:1) was 95.1306 and 98.4249 and the “response to agonist, X4:ramp1.I:2” value (MRGPRX4 + RAMP1; X4:ramp1 1:2) was 83.6233 and 101.678.
